Patent EP4667463A1, “DOMIDE MOLECULAR GLUE DERIVATIVE AND USE THEREOF” (CSPC Megalith Biopharmaceutical Co., Ltd., priority 2023, dated 2024)

These molecules were tested on HL-60 (assay: In vitro anti-tumor activity of molecular glue compounds, CellTiter-Lumi cell viability assay). Conditions: Homo sapiens; HL-60 cells, 96 h incubation; read-out: Cell inhibitory activity (IC50 values) HL-60.
Type: cell-based
Experimental: (§1) Different tumor cells were all commercially available and used for evaluating the anti-tumor inhibitory activity of the compounds of the present disclosure. Various tumor cells were cultured until the cell confluency reached 80%-90%, with cell viability above 90% as determined by trypan blue exclusion. Then, the cells were plated. Specifically, after cell density optimization, 100 µL of each of the cell suspensions of HL-60 and SK-BR-3 cells (cell density: 3000 cells/well), Romas cells (cell density: 6000 cells/well), NCI-H929 cells (cell density: 4000 cells/well), and NCI-H82 cells (cell density: 5000 cells/well) was plated in a BeyoGold™ ultra-low attachment black clear-bottom 96-well plate (Cat. No.: FULA965-24pcs), and the plate was incubated overnight. The next day, after the adherent cells were adhered to the wall and suspension cells requiring aggregation were aggregated, 50 µL of culture medium was aspirated from each well of the 96-well plate. Then, the compounds diluted with the corresponding culture media were added. Specifically, the compounds were serially diluted at a 5-fold gradient starting from the highest concentration of 1 µM, with a final DMSO concentration of 1%o, and the test compounds were then added to the cell culture plate. The plate was incubated in an incubator at 37 °C with 5% carbon dioxide for 96 h. Before measurement, the CellTiter-Lumi™ luminescent cell viability assay reagent was equilibrated to room temperature in the dark. Then, 50 µL of the CellTiter-Lumi™ (Cat. No.: C0065XL) cell viability assay reagent was added to each well of the 96-well plate. The plate was shaken in the dark on a shaker at 300 rpm for 10 min to ensure complete cell lysis. After the reaction was completed, the luminescence was measured on a multi-mode microplate reader. The cell inhibition rate was determined according to the luminescence. Then, a cell viability curve was generated by Graphpad Prism 8.0, and the IC50 values were calculated. The compounds of the present disclosure were tested for activity by the method described above. Table 1. Cell inhibitory activity (IC50 values)
With `O=C1CCC(N2Cc3cc(CNC(=O)Nc4ccc(CCCOCCC5CCCNC5)c(Cl)c4)ccc3C2=O)C(=O)N1` (centres unmarked) [Compound B21] the IC50 was under 10 nM.
`O=C1CCC(N2Cc3cc(CNC(=O)Nc4ccc(CCCCOC5CCCNC5)c(Cl)c4)ccc3C2=O)C(=O)N1` (centres unmarked) [Compound B25] gave an IC50 of under 10 nM.
`O=C1CCC(N2Cc3cc(CNC(=O)Nc4ccc(CCOCCNC5CCCCC5)c(Cl)c4)ccc3C2=O)C(=O)N1` (centres unmarked) [Compound B46] was tested, and the IC50 was under 10 nM.
`CC1(OCCCc2ccc(NC(=O)NCc3ccc4c(c3)CN(C3CCC(=O)NC3=O)C4=O)cc2Cl)CCCNC1` (centres unmarked) [Compound B67] was tested, and the IC50 was under 10 nM.
With `O=C1CCC(N2Cc3cc(CNC(=O)Nc4ccc(CCOCCC5CCCNC5)c(Cl)c4)ccc3C2=O)C(=O)N1` (centres unmarked) [Compound B15] the IC50 was under 10 nM.
`O=C1CCC(N2Cc3cc(CNC(=O)Nc4ccc(CCOCCNC5CC5)c(Cl)c4)ccc3C2=O)C(=O)N1` (centres unmarked) [Compound B47] showed an IC50 of 10 to 50 nM.
Molecule `O=C1CCC(N2Cc3cc(CNC(=O)Nc4ccc(COCCC5CCCNC5)c(Cl)c4)ccc3C2=O)C(=O)N1` (centres unmarked) [Compound B9] has an IC50 of under 10 nM.

Each molecule was assayed on NCI-H82 in the same assay as above. Conditions: Homo sapiens; NCI-H82 cells, 96 h incubation; read-out: Cell inhibitory activity (IC50 values) NCI-H82.
Type: cell-based
Experimental: as §1
`O=C1CCC(N2Cc3cc(CNC(=O)Nc4ccc(CCCOCCC5CCCNC5)c(Cl)c4)ccc3C2=O)C(=O)N1` (centres unmarked) [Compound B21] was tested, and the IC50 was over 100 nM.
`O=C1CCC(N2Cc3cc(CNC(=O)Nc4ccc(CCCCOC5CCCNC5)c(Cl)c4)ccc3C2=O)C(=O)N1` (centres unmarked) [Compound B25] was tested, and the IC50 was 10 to 50 nM.
For `O=C1CCC(N2Cc3cc(CNC(=O)Nc4ccc(CCOCCNC5CCCCC5)c(Cl)c4)ccc3C2=O)C(=O)N1` (centres unmarked) [Compound B46], the IC50 was over 100 nM.
With `CC1(OCCCc2ccc(NC(=O)NCc3ccc4c(c3)CN(C3CCC(=O)NC3=O)C4=O)cc2Cl)CCCNC1` (centres unmarked) [Compound B67] the IC50 was 10 to 50 nM.
Molecule `O=C1CCC(N2Cc3cc(CNC(=O)Nc4ccc(CCOCCC5CCCNC5)c(Cl)c4)ccc3C2=O)C(=O)N1` (centres unmarked) [Compound B15] has an IC50 of over 100 nM.
`O=C1CCC(N2Cc3cc(CNC(=O)Nc4ccc(CCOCCNC5CC5)c(Cl)c4)ccc3C2=O)C(=O)N1` (centres unmarked) [Compound B47] was tested, and the IC50 was over 100 nM.
`O=C1CCC(N2Cc3cc(CNC(=O)Nc4ccc(COCCC5CCCNC5)c(Cl)c4)ccc3C2=O)C(=O)N1` (centres unmarked) [Compound B9] gave an IC50 of 10 to 50 nM.

What follows are molecules tested on NCI-H929 in the same assay as above. Conditions: Homo sapiens; NCI-H929 cells, 96 h incubation; read-out: Cell inhibitory activity (IC50 values) NCI-H929.
Type: cell-based
Experimental: as §1
Work on `O=C1CCC(N2Cc3cc(CNC(=O)Nc4ccc(CCCOCCC5CCCNC5)c(Cl)c4)ccc3C2=O)C(=O)N1` (centres unmarked) [Compound B21] yielded an IC50 of 10 to 50 nM.
`O=C1CCC(N2Cc3cc(CNC(=O)Nc4ccc(CCCCOC5CCCNC5)c(Cl)c4)ccc3C2=O)C(=O)N1` (centres unmarked) [Compound B25] gave an IC50 of under 10 nM.
`O=C1CCC(N2Cc3cc(CNC(=O)Nc4ccc(CCOCCNC5CCCCC5)c(Cl)c4)ccc3C2=O)C(=O)N1` (centres unmarked) [Compound B46] was tested, and the IC50 was 10 to 50 nM.
With `CC1(OCCCc2ccc(NC(=O)NCc3ccc4c(c3)CN(C3CCC(=O)NC3=O)C4=O)cc2Cl)CCCNC1` (centres unmarked) [Compound B67] the IC50 was under 10 nM.
`O=C1CCC(N2Cc3cc(CNC(=O)Nc4ccc(CCOCCC5CCCNC5)c(Cl)c4)ccc3C2=O)C(=O)N1` (centres unmarked) [Compound B15] gave an IC50 of 10 to 50 nM.
Work on `O=C1CCC(N2Cc3cc(CNC(=O)Nc4ccc(CCOCCNC5CC5)c(Cl)c4)ccc3C2=O)C(=O)N1` (centres unmarked) [Compound B47] yielded an IC50 of 10 to 50 nM.
With `O=C1CCC(N2Cc3cc(CNC(=O)Nc4ccc(COCCC5CCCNC5)c(Cl)c4)ccc3C2=O)C(=O)N1` (centres unmarked) [Compound B9] the IC50 was under 10 nM.

What follows are molecules tested on Romas in the same assay as above. Conditions: Romas cells, 96 h incubation; read-out: Cell inhibitory activity (IC50 values) Romas.
Type: cell-based
Experimental: as §1
`O=C1CCC(N2Cc3cc(CNC(=O)Nc4ccc(CCCOCCC5CCCNC5)c(Cl)c4)ccc3C2=O)C(=O)N1` (centres unmarked) [Compound B21] was tested, and the IC50 was 10 to 50 nM.
Molecule `O=C1CCC(N2Cc3cc(CNC(=O)Nc4ccc(CCCCOC5CCCNC5)c(Cl)c4)ccc3C2=O)C(=O)N1` (centres unmarked) [Compound B25] has an IC50 of under 10 nM.
For `O=C1CCC(N2Cc3cc(CNC(=O)Nc4ccc(CCOCCNC5CCCCC5)c(Cl)c4)ccc3C2=O)C(=O)N1` (centres unmarked) [Compound B46], the IC50 was 50 to 100 nM.
In the case of `CC1(OCCCc2ccc(NC(=O)NCc3ccc4c(c3)CN(C3CCC(=O)NC3=O)C4=O)cc2Cl)CCCNC1` (centres unmarked) [Compound B67], the IC50 is reported as under 10 nM.
With `O=C1CCC(N2Cc3cc(CNC(=O)Nc4ccc(CCOCCC5CCCNC5)c(Cl)c4)ccc3C2=O)C(=O)N1` (centres unmarked) [Compound B15] the IC50 was 10 to 50 nM.
Molecule `O=C1CCC(N2Cc3cc(CNC(=O)Nc4ccc(CCOCCNC5CC5)c(Cl)c4)ccc3C2=O)C(=O)N1` (centres unmarked) [Compound B47] has an IC50 of over 100 nM.
Molecule `O=C1CCC(N2Cc3cc(CNC(=O)Nc4ccc(COCCC5CCCNC5)c(Cl)c4)ccc3C2=O)C(=O)N1` (centres unmarked) [Compound B9] has an IC50 of 10 to 50 nM.

What follows are molecules tested on SK-BR-3 in the same assay as above. Conditions: Homo sapiens; SK-BR-3 cells, 96 h incubation; read-out: Cell inhibitory activity (IC50 values) SK-BR-3.
Type: cell-based
Experimental: as §1
For `O=C1CCC(N2Cc3cc(CNC(=O)Nc4ccc(CCCOCCC5CCCNC5)c(Cl)c4)ccc3C2=O)C(=O)N1` (centres unmarked) [Compound B21], the IC50 was 10 to 50 nM.
For `O=C1CCC(N2Cc3cc(CNC(=O)Nc4ccc(CCCCOC5CCCNC5)c(Cl)c4)ccc3C2=O)C(=O)N1` (centres unmarked) [Compound B25], the IC50 was under 10 nM.
`O=C1CCC(N2Cc3cc(CNC(=O)Nc4ccc(CCOCCNC5CCCCC5)c(Cl)c4)ccc3C2=O)C(=O)N1` (centres unmarked) [Compound B46] gave an IC50 of 50 to 100 nM.
With `CC1(OCCCc2ccc(NC(=O)NCc3ccc4c(c3)CN(C3CCC(=O)NC3=O)C4=O)cc2Cl)CCCNC1` (centres unmarked) [Compound B67] the IC50 was under 10 nM.
Work on `O=C1CCC(N2Cc3cc(CNC(=O)Nc4ccc(CCOCCC5CCCNC5)c(Cl)c4)ccc3C2=O)C(=O)N1` (centres unmarked) [Compound B15] yielded an IC50 of 10 to 50 nM.
Molecule `O=C1CCC(N2Cc3cc(CNC(=O)Nc4ccc(CCOCCNC5CC5)c(Cl)c4)ccc3C2=O)C(=O)N1` (centres unmarked) [Compound B47] has an IC50 of over 100 nM.
`O=C1CCC(N2Cc3cc(CNC(=O)Nc4ccc(COCCC5CCCNC5)c(Cl)c4)ccc3C2=O)C(=O)N1` (centres unmarked) [Compound B9] was tested, and the IC50 was 10 to 50 nM.
